# Laboratory results from PubChem BioAssay AID2060335 (Molecular Pharmacology Branch, DTP, NCI, 2025).
# pIC50: −log10 of the molar value. Values joined by “and” are separate entries in the source; they are usually repeats but may differ in a detail not shown here. Identical values can stand only once.
# Test system: DU-145 multicell spheroids with HUVEC/MSC, viability
# Assay: Anticancer human tumor DU-145 cell line growth inhibition [IpAb];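 note: spheroids exposed to agents for seven days before measurement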;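 for viability, T/C: percent of DMSO vehicle control viability so 100% = untreated level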
# Details: for viability, T/C: stronger effect = lower value
# Excerpt: Combinatorial screen of targeted agents with ipatasertib and abemaciclib in multi-cell type tumor spheroids
# A high-throughput screen of multi-cell type tumor spheroids was designed to identify active combinations of targeted small molecules and ipatasertib or abemaciclib. Complex spheroids include a stromal component modeled by human endothelial cells (HUVEC) and fibroblasts modeled by human mesenchymal stem cells (MSCs). The concentration ranges selected for each drug and investigational agent were based upon clinically achievable concentrations if the clinical Cmax of the agent was known.
# Compounds. The drugs and investigational agents: ipatasertib (NSC767898), abemaciclib(NSC768073), selumetinib (NSC741078), trametinib (758246), adavosertib (NSC754352), everolimus (NSC733504), sapanisertib (NSC764658), vemurafenib (NSC761431), venetoclax (NSC766270), copanlisib (NSC809693), apelisib (NSC765974), palbociblib (NSC758247), vemurafenib (NSC761431), dabrafenib (NSC764134), ravoxertinib (NSC781343), BMS-387032 (NSC767048), sotorasib (NSC818433), talazoparib (NSC767125) and afursertib (NSC778305), were obtained from the National Cancer Institute (NCI) Developmental Therapeutics Program Chemical Repository. The FDA-approved anticancer drug set is available from the NCI Developmental Therapeutics Program. […] The stock solutions were prepared in dimethyl sulfoxide (DMSO, Sigma-Aldrich, St. Louis, MO, cat. D2650) at 800-fold the tested concentration and stored at -70 degrees C prior to their use. All drugs and investigational agents were tested over a range starting from a high concentration at or near the clinical Cmax and decreasing in half-log increments. If the clinical Cmax for an agent had not been determined, the highest concentration tested was 10 microM.
# NCI60 Cell Culture. NCI60 cell lines were obtained from the NCI Developmental Therapeutics Program Tumor Repository. For each lot of cells, the Repository performed Applied Biosystems AmpFLSTR Identifiler testing with PCR amplification to confirm consistency with the published Identifier STR profile for each cell line. Cells were kept in continuous culture for no more than 20 passages. The optimal seeding densities for each of the cell lines at each time point assessed were determined prior to performing the concentration response studies. Briefly, the NCI60 human tumor lines were grown as monolayers in RPMI 1640 medium supplemented with 10% FBS and 2 mmol/L L-glutamine.
# An additional 9 lines were from the NCI60 cell line panel including MDA-MB-231 breast carcinoma, MDA-MB-468 breast carcinoma, MCF7 breast carcinoma, Hs578T breast carcinoma, MALME-3M melanoma, SK-MEL-2 melanoma, SK-OV-3 ovarian carcinoma, DU-145 prostate carcinoma, PC-3 prostate carcinoma, all cell lines along with major genetic alterations are listed on Table 2. Pooled donor human umbilical vein endothelial cells (HUVEC, Lonza, cat. CC-2519) and human mesenchymal stem cells (hMSC, Lonza, cat. PT-2501) were purchased from Lonza (Walkersville, MD).
# PDMR cell lines were grown in complete medium (DC medium): Dulbecco's modified Eagle's medium (DMEM)/F12 supplemented with 5% fetal bovine serum (FBS), 2 mM L-glutamine, 100 U/mL penicillin and 100 µg/ml streptomycin, 0.4 µg/ml hydrocortisone, 10 ng/ml epidermal growth factor (EGF) recombinant human protein, 24 µg/mL adenine, and 0.1 mg/mL primocin. During culture from frozen stock vials, PDMR cells were cultured in the same medium containing 10 µM Y-27632 (see Table 3). The PDCs were cultured in complete DMEM/F12 media without 10 microM Y-27632 dihydrochloride for at least two passages prior to the screen. The pooled donor HUVEC and hMSC were cultured in endothelial cell growth medium 2 (PromoCell, Heidelberg, Germany, cat. C-22011) and mesenchymal stem cell growth medium 2 (PromoCell, cat. C-28009), respectively. For all experiments, HUVEC and hMSC were used at passages </=5.
# […]
Compound,"viability, T/C (compound 0.0316 µM)","viability, T/C (compound 0.1 µM)","viability, T/C (compound 0.316 µM)","viability, T/C (compound 1 µM)","viability, T/C (compound 3.16 µM)","viability, T/C (compound 10 µM)",pIC50 (curve of compound),further results
C=CC(=O)N1CCN(c2nc(=O)n(-c3c(C)ccnc3C(C)C)c3nc(-c4c(O)cccc4F)c(F)cc23)C(C)C1 (configuration not stated),104% and 107%,109% and 108%,107% and 109%,112% and 113%,90.7% and 103%,44.1% and 48.9%,5.06 and 5.01,
C=CCn1c(=O)c2cnc(Nc3ccc(N4CCN(C)CC4)cc3)nc2n1-c1cccc(C(C)(C)O)n1,92.5% and 92.3%,59.8% and 56.2%,23.2% and 29.1%,18.4% and 24.8%,11.1% and 15.6%,9.63% and 14.2%,6.87 and 6.89,
CC(=O)c1c(C)c2cnc(Nc3ccc(N4CCNCC4)cn3)nc2n(C2CCCC2)c1=O,,,,,,,< 6.52,"viability, T/C (compound 0.000949 µM): 104% and 89.4%; viability, T/C (compound 0.003 µM): 102% and 98.4%; viability, T/C (compound 0.00949 µM): 99.7% and 96.5%; viability, T/C (compound 0.03 µM): 103% and 93.6%; viability, T/C (compound 0.0949 µM): 99.4% and 97.1%; viability, T/C (compound 0.3 µM): 90.7% and 80.9%"
CC(C)(C)c1cnc(CSc2cnc(NC(=O)C3CCNCC3)s2)o1,,,,,,,6.84 and 6.93,"viability, T/C (compound 0.00949 µM): 110% and 106%; viability, T/C (compound 0.03 µM): 105% and 110%; viability, T/C (compound 0.0949 µM): 71.5% and 59.3%; viability, T/C (compound 0.3 µM): 12.9% and 9.3%; viability, T/C (compound 0.949 µM): 7.58% and 6.45%; viability, T/C (compound 3 µM): 5.4% and 5.44%"
CC(C)n1nc(-c2ccc3oc(N)nc3c2)c2c(N)ncnc21,14.4% and 12%,10.8% and 10.1%,,,,,8.78 and 8.69,"viability, T/C (compound 0.000316 µM): 78.7% and 94.3%; viability, T/C (compound 0.001 µM): 57.3% and 66.2%; viability, T/C (compound 0.00316 µM): 41.3% and 40.2%; viability, T/C (compound 0.01 µM): 22.9% and 21.7%"
CC1(C)CCC(CN2CCN(c3ccc(C(=O)NS(=O)(=O)c4ccc(NCC5CCOCC5)c([N+](=O)[O-])c4)c(Oc4cnc5[nH]ccc5c4)c3)CC2)=C(c2ccc(Cl)cc2)C1,104%,103% and 109%,104% and 107%,96.4% and 99.4%,69.2% and 76%,10.1% and 10.8%,5.34 and 5.30,
CCCS(=O)(=O)Nc1ccc(F)c(C(=O)c2c[nH]c3ncc(-c4ccc(Cl)cc4)cc23)c1F,112% and 110%,108% and 114%,110% and 116%,115% and 118%,109% and 113%,79.7% and 82.9%,< 5.00,
CCN1CCN(Cc2ccc(Nc3ncc(F)c(-c4cc(F)c5nc(C)n(C(C)C)c5c4)n3)nc2)CC1,94% [middle of 13 runs],84.7% [middle of 13 runs],74.7% [middle of 13 runs],65.3% [middle of 13 runs],,,,"viability, T/C (compound 0.01 µM): 97% [middle of 13 runs]; pIC50 (compound alone, run of 06/01/2021): < 6.00"
COc1c(OCCCN2CCOCC2)ccc2c3n(c(=NC(=O)c4cnc(N)nc4)nc12)CCN3,27.3% and 28.9%,15.9% and 14.9%,10.9% and 10.1%,11% and 11.2%,,,8.00 and 8.01,"viability, T/C (compound 0.00316 µM): 78.7% and 83.3%; viability, T/C (compound 0.01 µM): 49.7% and 48.7%"
Cc1nc(NC(=O)N2CCCC2C(N)=O)sc1-c1ccnc(C(C)(C)C(F)(F)F)c1 (configuration not stated),81% and 75.7%,60.6% and 54.3%,39.9% and 37.3%,29% and 31.4%,21.7% and 20.9%,8.51% and 8.2%,6.72 and 6.80,
Cn1cnc2c(F)c(Nc3ccc(Br)cc3Cl)c(C(=O)NOCCO)cc21,,,,,,,6.22 and 6.15,"viability, T/C (compound 0.00949 µM): 84.1% and 81.8%; viability, T/C (compound 0.03 µM): 67.6% and 74.4%; viability, T/C (compound 0.0949 µM): 60.8% and 66.5%; viability, T/C (compound 0.3 µM): 55.5% and 53.2%; viability, T/C (compound 0.949 µM): 48% and 51.1%; viability, T/C (compound 3 µM): 42.9% and 37.9%"
Cn1ncc(Cl)c1-c1cc(C(=O)NC(CN)Cc2cccc(F)c2)sc1Cl (configuration not stated),92.5% and 86.1%,74.3% and 61.8%,41.4% and 33.2%,27.6% and 23.1%,20.3% and 15.2%,1.17% and 1.6%,6.57 and 6.79,
Cn1nccc1Nc1nccc(-c2ccn(C(CO)c3ccc(Cl)c(F)c3)c(=O)c2)n1 (configuration not stated),87.3% and 90%,72.5% and 77.1%,79% and 73.5%,93.7% and 87.4%,112% and 116%,65% and 81.9%,< 5.00,
Cn1ncnc1[C@H]1c2n[nH]c(=O)c3cc(F)cc(c23)N[C@@H]1c1ccc(F)cc1,95.1% and 97.6%,92.9% and 80.5%,,,,,< 7.00,"viability, T/C (compound 0.000316 µM): 109% and 101%; viability, T/C (compound 0.001 µM): 105% and 99.7%; viability, T/C (compound 0.00316 µM): 97.9% and 92.2%; viability, T/C (compound 0.01 µM): 99.3% and 96.5%"
